Target: T1, FPRL-1 (Homo sapiens, UniProt P25090)
T1 construct: expressed in transfected cells
T1 sequence (P25090 1-351): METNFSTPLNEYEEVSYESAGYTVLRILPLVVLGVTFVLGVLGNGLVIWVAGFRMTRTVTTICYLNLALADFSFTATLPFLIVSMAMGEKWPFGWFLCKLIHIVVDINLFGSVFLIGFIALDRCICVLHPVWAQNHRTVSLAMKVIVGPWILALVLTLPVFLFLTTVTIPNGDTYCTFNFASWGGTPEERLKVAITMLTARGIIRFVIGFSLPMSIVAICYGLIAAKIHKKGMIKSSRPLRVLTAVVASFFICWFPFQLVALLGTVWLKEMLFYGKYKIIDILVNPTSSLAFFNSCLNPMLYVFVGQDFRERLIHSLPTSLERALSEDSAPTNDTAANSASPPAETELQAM
Experiment: compound-induced calcium activity on FLIPR Tetra in CHO-Gα16 cells stably expressing FPRL1
Type: cell-based
Conditions: for FPRL-1 Ga16-CHO (Rel. eff.): relative efficacy; for EC50: tested 0.61 to 10,000 nM, read-out: FPRL-1 Ga16-CHO EC50
Procedure: CHO-Gα16 cells stably expressing FPRL1 were cultured in (F12, 10% FBS, 1% PSA, 400 μg/ml geneticin and 50 μg/ml hygromycin) and HEK-Gqi5 cells stable expressing FPR1 were cultured in (DMEM high glucose, 10% FBS, 1% PSA, 400 μg/ml geneticin and 50 μg/ml hygromycin). In general, the day before the experiment, 18,000 cells/well were plated in a 384-well clear bottom poly-d-lysine coated plate. The following day the screening compound-induced calcium activity was assayed on the FLIPR^Tetra. The drug plates were prepared in 384-well microplates using the EP3 and the MultiPROBE robotic liquid handling systems. Compounds were tested at concentrations ranging from 0.61 to 10,000 nM. Results are expressed as EC50 (nM) and efficacy values.

| SMILES | FPRL-1 Ga16-CHO (Rel. eff.) | EC50 [nM] |
| --- | --- | --- |
| CCC[C@H](NC(=O)Nc1ccc(Br)cc1F)C(=O)NCC(N)=O [Compound 31, (2S)-N-(2-amino-2-oxoethyl)-2-{[(4-bromo-2-fluorophenyl]carbamoyl}amino)pentanamide] | (0.98) | 5.2 |
| CC(C)C[C@H](NC(=O)Nc1ccc(Br)cc1)C(=O)NCC(N)=O [Compound 32, (2S)-N-(2-amino-2-oxoethyl)-2-{[(4-bromophenyl)carbamoyl]amino}-4-methylpentanamide] | (1.08) | 1.05 |
| CC(C)C[C@H](NC(=O)Nc1ccc(Br)cc1F)C(=O)NCC(=O)OC(C)(C)C [Compound 33, tert-butyl{[(2S)-2-{[(4-bromo-2-fluorophenyl)carbamoyl]amino}-4-methylpentanoyl]amino}acetate] | (1.19) | 134 |
| CC(C)C[C@H](NC(=O)Nc1ccc(Br)cc1F)C(=O)NCC(=O)O [Compound 34, {[(2S)-2-{[(4-bromo-2-fluorophenyl)carbamoyl]amino}-4-methylpentanoyl]amino}acetic acid] | (1.10) | 3.6 |
| CC(=O)CNC(=O)[C@H](CC(C)C)NC(=O)Nc1ccc(Br)cc1F [Compound 35, (2S)-2-{[(4-bromo-2-fluorophenyl)carbamoyl]amino}-4-methyl-N-(2-oxopropyl)pentanamide] | (0.99) | 20 |
| CC(C)C[C@H](NC(=O)Nc1ccc(Br)cc1F)C(=O)NCCO [Compound 36, (2S)-2-{[(4-bromo-2-fluorophenyl)carbamoyl]amino}-N-(2-hydroxyethyl)-4-methylpentanamide] | (1.05) | 77 |
| CC(C)C[C@H](NC(=O)Nc1ccc(Br)cc1F)C(=O)N[C@@H](C)C(=O)OC(C)(C)C [Compound 38, tert-butyl(2S)-2-{[(2S)-2-{[(4-bromo-2-fluorophenyl)carbamoyl]amino}-4-methylpentanoyl]amino}propanoate] | (1.00) | 174 |
| CC(C)C[C@H](NC(=O)Nc1ccc(Br)cc1F)C(=O)N[C@@H](C)C(=O)O [Compound 39, (2S)-2-{[(2S)-2-{[(4-bromo-2-fluorophenyl)carbamoyl]amino}-4-methylpentanoyl]amino}propanoic acid] | (0.95) | 12 |
| CC(C)C[C@H](NC(=O)Nc1ccc(Br)cc1F)C(=O)N[C@@H](C)C(N)=O [Compound 40, (2S)-N-[(1S)-2-amino-1-methyl-2-oxoethyl]-2-{[(4-bromo-2-fluorophenyl)carbamoyl]amino}-4-methylpentanamide] | (1.05) | 31 |
| CC(C)C[C@H](NC(=O)Nc1ccc(Br)cc1)C(=O)N[C@@H](C)C(=O)OC(C)(C)C [Compound 41] | (0.96) | 147 |
| CC(C)C[C@H](NC(=O)Nc1ccc(Br)cc1)C(=O)N[C@H](C(=O)OC(C)(C)C)C(C)C [Compound 42, tert-butyl(2S)-2-{[(2S)-2-{[(4-bromophenyl)carbamoyl]amino}-4-methylpentanoyl]amino}-3-methylbutanoate] | (0.98) | 68 |
| CC(C)C[C@H](NC(=O)Nc1ccc(Br)cc1)C(=O)N[C@@H](C)C(=O)O [Compound 43, (2S)-2-{[(2S)-2-{[(4-bromophenyl)carbamoyl]amino}-4-methylpentanoyl]amino}propanoic acid] | (1.05) | 11 |
| CC(C)C[C@H](NC(=O)Nc1ccc(Br)cc1)C(=O)N[C@H](C(=O)O)C(C)C [Compound 44, (2S)-2-{[(2S)-2-{[(4-bromophenyl)carbamoyl]amino}-4-methylpentanoyl]amino}-3-methylbutanoic acid] | (1.13) | 1.83 |
| CC(C)C[C@H](NC(=O)Nc1ccc(Br)cc1)C(=O)N[C@@H](C)C(N)=O [Compound 45, (2S)-N-[(1S)-2-amino-1-methyl-2-oxoethyl]-2-{[(4-bromophenyl)carbamoyl]amino}-4-methylpentanamide] | (0.96) | 24 |
| CC(C)C[C@H](NC(=O)Nc1ccc(Br)cc1)C(=O)N[C@H](C(N)=O)C(C)C [Compound 46] | (1.03) | 1.3 |
| CC(C)C[C@H](NC(=O)Nc1ccc(Br)cc1)C(=O)NCC(O)CO (stereo partly drawn) [Compound 47, (2S)-2-{[(4-bromophenyl)carbamoyl]amino}-N-(2,3-dihydroxypropyl)-4-methylpentanamide] |  | 5.1 |
| CC(C)C[C@H](NC(=O)Nc1ccc(Br)cc1)C(=O)NCC(C)(C)O [Compound 47, (2S)-2-{[(4-bromophenyl)carbamoyl]amino}-N-(2-hydroxy-2-methylpropyl)-4-methylpentanamide] |  | 2.1 |
| CC(C)C[C@H](NC(=O)Nc1ccc(Br)cc1)C(=O)NC(CO)CO [Compound 48, (2S)-2-{[(4-bromophenyl)carbamoyl]amino}-N-[2-hydroxy-1-(hydroxymethyl)ethyl]-4-methylpentanamide] |  | 7.4 |
| CC(C)C[C@H](NC(=O)Nc1ccc(Br)cc1)C(=O)N[C@H](C)CO [Compound 48, (2S)-2-{[(4-bromophenyl)carbamoyl]amino}-N-[(1R)-2-hydroxy-1-methylethyl]-4-methylpentanamide] |  | 3 |
| CCC[C@H](NC(=O)[C@H](CC(C)C)NC(=O)Nc1ccc(Br)cc1)C(=O)OC(C)(C)C [Compound 49] | (1.06) | 13 |
| CC(C)C[C@H](NC(=O)Nc1ccc(Br)cc1)C(=O)N[C@H](C(=O)OC(C)(C)C)c1ccccc1 [Compound 50, tert-butyl(2S)-{[(2S)-2-{[(4-bromophenyl)carbamoyl]amino}-4-methylpentanoyl]amino}(phenyl)ethanoate] | (1.02) | 122 |
| CCC[C@H](NC(=O)[C@H](CC(C)C)NC(=O)Nc1ccc(Br)cc1)C(=O)O [Compound 51, (2S)-2-{[(2S)-2-{[(4-bromophenyl)carbamoyl]amino}-4-methylpentanoyl]amino}pentanoic acid] | (0.89) | 1 |
| CC(C)C[C@H](NC(=O)Nc1ccc(Br)cc1)C(=O)N[C@H](C(=O)O)c1ccccc1 [Compound 52, (2S)-{[(2S)-2-{[(4-bromophenyl)carbamoyl]amino}-4-methylpentanoyl]amino}(phenyl)ethanoic acid] | (1.08) | 9.1 |
| CCC[C@H](NC(=O)[C@H](CC(C)C)NC(=O)Nc1ccc(Br)cc1)C(N)=O [Compound 53, (2S)-N-[(2S)-1-amino-1-oxopentan-2-yl]-2-{[(4-bromophenyl)carbamoyl]amino}-4-methylpentanamide] | (1.03) | 6.4 |
| CC(C)C[C@H](NC(=O)Nc1ccc(Br)cc1)C(=O)N[C@H](C(N)=O)c1ccccc1 [Compound 54, (2S)-N-[(1S)-2-amino-2-oxo-1-phenylethyl]-2-{[(4-bromophenyl)carbamoyl]amino}-4-methylpentanamide] | (0.99) | 84 |
| CC(C)CC(C)(NC(=O)Nc1ccc(Br)cc1)C(=O)NCC(=O)OC(C)(C)C (stereo not drawn) [Compound 55, tert-butyl {[2-{[(4-bromophenyl)carbamoyl]amino}-2,4-dimethylpentanoyl]amino}acetate] | (0.98) | 58 |
